How the values were obtained:
Aβ plaques = target: T1, Aβ plaques (Homo sapiens, UniProt P05067); test: Fluorescent compound staining on human AD brain sections (β-amyloid IHC double labeling); type: binding; details: 100 uM compound; for Brain Section Staining: Ab (amyloid): qualitative rating + to ++++ or words
T1 construct: Native forms of tau (various isoforms, hyperphosphorylated) and amyloid aggregates are present in brain sections; from tissue; host or cells: human AD brain, frozen frontal lobe sections
T1 sequence (P05067 672-713 limits assumed): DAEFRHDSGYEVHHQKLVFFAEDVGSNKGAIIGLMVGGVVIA
Source text: (§1) Native forms of tau (various isoforms, hyperphosphorylated) and amyloid aggregates are present in brain sections and therefore preferred for compound testing. Using the self-fluorescence of a test compound can give an indication of whether the compound binds to tau tangles/PHFs and/or amyloid plaques. This is further confirmed by immunostaining with Aβ and tau antibodies and overlaying the images. […] However, it is possible to “rate” the signal strength qualitatively and distinguish compounds that show binding to these aggregates.
(§2) In one of the embodiments of the present invention, the self-fluorescence of the compound of formula (I) is used to determine whether the compound binds to tau/amyloid in the brain sections and to give it a qualitative rating. The next step is to proceed to the autoradiography using different brain types for further evaluation and quantitation.
(§3) Tau fluorescent compounds staining on human brain sections (Double or triple labeled with tau and β-amyloid Immunohistochemistry (IHC))
(§4) Serial sections (6 μm thick) from OCT-embedded frozen blocks of front lobe were used for staining (OCT—optimal cutting temperature). After fixation and quenching of autofluorescence, tissue sections were incubated with in 100 μM of tau compound in 50% ethanol PBS for 60 min. Then sections were dipped briefly into water, rinsed in PBS, blocked with 5% normal horse serum in PBS for 1 hour at room temperature. After blocking, the tissue was incubated with tau or β-amyloid primary antibody at 4° C. overnight in a humid chamber. Next day, the sections were washed with PBS and then incubated with secondary antibody for 1 hour.

AD brain sections = test: Fluorescent compound staining on human AD brain sections (self-fluorescence, overall binding); details: for binding of fluorescent compound to AD brain sections confirmed by immunostaining with tau or Aβ antibodies: figure legends, double labeling at 100 uM; for Brain Section Staining: fluorescence: Table 1 quinolines, 100 uM compound
Source text: as §1, §2, §3, §4

tau aggregates = test: Fluorescent compound staining on human AD brain sections (tau IHC double labeling); type: binding; details: 100 uM compound, qualitative rating + to ++++ or words
Source text: as §1, §2, §3, §4

Row | Brain Section Staining: Ab (amyloid) (Aβ plaques; Table 1 quinolines) | SMILES | Brain Section Staining: tau (tau aggregates; Table 1 quinolines) | further results
1 | – | CN(C)c1ccc(-c2ccc(-c3nc4ccccc4n3CCF)cc2)cc1 [Compound T543, 4′-(1-(2-Fluoroethyl)-1H-benzo[d]imidazol-2-yl)-N,N-dimethyl-[1,1′-biphenyl]-4-amine] | – | Brain Section Staining: Aβ (Aβ plaques; Table 3 benzimidazoles, qualitative rating 1+ to 4+ / + to +++): no binding; binding of fluorescent compound to AD brain sections confirmed by immunostaining with tau or Aβ antibodies (AD brain sections): binding
2 | binds to amyloid and Tau | COc1ccc2nc(-c3ccc(N(C)C)cc3)ccc2c1 [Compound T139, 4-(6-Methoxyquinolin-2-yl)-N,N-dimethylaniline] | binds to amyloid and Tau | –
3 | – | CN1CCN(c2ccc(-c3cc(F)c4ccccc4n3)cc2)CC1 [Compound T559] | – | Brain Section Staining: fluorescence (AD brain sections): No fluorescence
4 | not to amyloid | [N-]=[N+]=NCCOCCOCCNc1ccc(-c2ccc3ccccc3n2)cc1 [Compound T412] | binds to tau | –
5 | – | Nc1ccc(-c2ccc3ccccc3n2)cc1F [Compound T445, 2-Fluoro-4-(quinolin-2-yl) aniline] | binds to Tau | –
6 | binds to Ab | Cn1ccc2cc(-c3ccc4ccccc4n3)ccc21 [Compound T453, 2-(1-Methyl-1H-indol-5-yl)quinoline] | – | –
7 | binds to Ab (amyloid) (100 uM) | CN(C)CCNc1cc(-c2ccccc2)nc2ccccc12 [Compound T048] | – | –
8 | – | CNc1ccc(C#Cc2nc3ccc(O)cc3s2)cc1F [T118/ W366, 2-((3-fluoro-4-(methylamino)phenyl)ethynyl)benzo[d]thiazol-6-ol] | – | Brain Section Staining: Ab (amyloid) (Aβ plaques; Table 2 acetylenes): binds to Ab
9 | – | CNc1ccc(-c2cc3ccccc3cn2)cc1.Cl [Compound T501, 4-(Isoquinolin-3-yl)-N-methylaniline] | – | Brain Section Staining: fluorescence (AD brain sections): No fluorescence
10 | – | FCCn1c(C#Cc2ccc3ccccc3n2)nc2ccccc21.O=C(O)C(F)(F)F [Compound T496] | – | Brain Section Staining: Ab (amyloid) (Aβ plaques; Table 2 acetylenes): Weakly binds to Ab
11 | – | CN1CCN(c2ccc(-c3ccc4cc(OCCOCCOCCF)ccc4n3)cc2)CC1 [Compound T550, 6-(2-(2-(2-Fluoroethoxy)ethoxy)ethoxy)-2-(4-(4-methylpiperazin-1-yl)phenyl)quinoline] | Binds to Tau | –
12 | – | Cn1c(C#Cc2ccc(NCCCF)cc2)nc2ccccc21 [Compound T540, N-(3-Fluoropropyl)-4-((1-methyl-1H-benzo[d]imidazol-2-yl)ethynyl)aniline] | – | binding of fluorescent compound to AD brain sections confirmed by immunostaining with tau or Aβ antibodies (AD brain sections): binding
13 | binds to Tau and Ab | CN(C)c1ccc(-c2cc(F)c3ccccc3n2)cc1 [Compound T484, 4-(4-Fluoroquinolin-2-yl)-N—N-dimethylaniline] | binds to Tau | –
14 | – | FCCCNc1ccc(-c2ccn3c(n2)nc2ccccc23)cc1 [Compound T542, 4-(Benzo[4,5]imidazo[1,2-a]pyrimidin-2-yl)-N-(3-fluoropropyl)aniline] | – | binding of fluorescent compound to AD brain sections confirmed by immunostaining with tau or Aβ antibodies (AD brain sections): binding
15 | binds to amyloid and tau | CNc1ccc(-c2ccc3ccccc3n2)cc1F [Compound T458] | binds to amyloid and tau | –
16 | – | Nc1ccc(-c2ccnc3nc4ccccc4n23)cc1 [Compound T520, 4-(Benzo[4,5]imidazo[1,2-a]pyrimidin-4-yl)aniline] | – | binding of fluorescent compound to AD brain sections confirmed by immunostaining with tau or Aβ antibodies (AD brain sections): binding
17 | binds to tau and amyloid | CNc1ccc(-c2cc(F)c3ccccc3n2)cc1 [Compound T466, 4-(4-fluoroquinolin-2-yl)-N-methylaniline] | binds to tau and amyloid | –
18 | – | CN(C)c1ccc(-c2ccc3cc(O)ccc3n2)cc1 [Compound T531] | Binds to Tau | –
19 | binds to Ab mostly | CN(C)c1ccc(/C=C/c2cnc3ccccc3n2)cc1 [Compound T475] | – | –
20 | binds to Ab mostly | CNc1ccc(-c2cnc3ccccc3c2)cc1 [Compound T477, N-Methyl-4-(quinolin-3-yl)aniline] | – | –

Row | Brain Section Staining: Ab (amyloid) (Aβ plaques; Table 1 quinolines) | SMILES | Brain Section Staining: tau (tau aggregates; Table 1 quinolines) | further results
21 | – | c1ccc2nc(-c3ccncc3)ccc2c1 [Compound T123, 2-(Pyridin-4-yl)quinoline] | – | Brain Section Staining: fluorescence (AD brain sections): No fluorescence is detected at 100 uM
22 | – | Fc1ccc(-c2ccc3ccccc3n2)cn1 [Compound T455, 2-(6-Fluoropyridin-3-yl)quinoline] | – | Brain Section Staining: fluorescence (AD brain sections): No fluorescence
23 | – | CNc1ccc(C#Cc2nc3cc(OC)ccc3s2)cc1F [Compound T448] | – | Brain Section Staining: Ab (amyloid) (Aβ plaques; Table 2 acetylenes): binds to Ab
24 | weakly binds to Ab | Cl.Cl.FCCNc1ccc(-c2ccc3ccccc3n2)cc1 [Compound T411, N-(2-Fluoroethyl)-4-(quinolin-2-yl)aniline dihydrochloride] | binds to tau | –
25 | – | FCCOCCOCCOc1ccc2nc(-c3ccc(N4CCOCC4)cc3)ccc2c1 [Compound T549, 4-(4-(6-(2-(2-(2-Fluoroethoxy)ethoxy)ethoxy)quinolin-2-yl)phenyl)morpholine] | Binds to Tau | –
26 | – | Fc1ccc(C#Cc2ccc3scnc3c2)cn1 [T114/ W313] | – | Brain Section Staining: Ab (amyloid) (Aβ plaques; Table 2 acetylenes): stains amyloid and tau; Brain Section Staining: tau (tau aggregates; Table 2 acetylenes): stains amyloid and tau
27 | – | FCCOCCOCCOc1ccc2nc(-c3ccc(N4CCOCC4)nc3)ccc2c1 [Compound T539, 4-(5-(6-(2-(2-(2-Fluoroethoxy)ethoxy)ethoxy)quinolin-2-yl)pyridin-2-yl)morpholine] | – | binding of fluorescent compound to AD brain sections confirmed by immunostaining with tau or Aβ antibodies (AD brain sections): binding
28 | – | CNc1ccc(C#Cc2nc3ccccc3n2CCOCCOCCF)cc1.O=C(O)C(F)(F)F [Compound T541] | – | binding of fluorescent compound to AD brain sections confirmed by immunostaining with tau or Aβ antibodies (AD brain sections): binding
29 | – | COc1ccc2nc(-c3ccc(N4CCN(CCCF)CC4)cc3)ccc2c1 [Compound T499, 2-(4-(4-(3-Fluoropropyl)piperazin-1-yl)phenyl)-6-methoxyquinoline] | – | binding of fluorescent compound to AD brain sections confirmed by immunostaining with tau or Aβ antibodies (AD brain sections): binding
30 | binds to Ab | CN(C)c1ccc(/C=C/c2ccc3cc(F)ccc3n2)cc1 [Compound T429] | – | –
31 | – | FCCOCCOCCn1c(C#Cc2cnc3[nH]ccc3c2)nc2ccccc21.O=C(O)C(F)(F)F [Compound T527] | – | binding of fluorescent compound to AD brain sections confirmed by immunostaining with tau or Aβ antibodies (AD brain sections): binding
32 | binds to tau and amyloid | COc1ccc2nc(-c3ccc(N)c(F)c3)ccc2c1 [Compound T467, 2-Fluoro-4-(6-methoxyquinolin-2-yl)aniline] | binds to tau and amyloid | –
33 | binds to Tau and Ab | FCCOCCOCCNc1ccc(-c2ccc3ccccc3n2)cc1 [Compound T442] | binds to Tau and Ab | –
34 | – | CNc1ccc(-c2ccn3c(n2)nc2ccccc23)cc1.O=C(O)C(F)(F)F.O=C(O)C(F)(F)F [Compound T522, 4-(Benzo[4,5]imidazo[1,2-a]pyrimidin-2-yl)-N-methylaniline bistrifluoracetate] | – | binding of fluorescent compound to AD brain sections confirmed by immunostaining with tau or Aβ antibodies (AD brain sections): total binding
35 | – | CNc1ccc(-c2ccc3cc(OC)ccc3n2)cc1F.Cl.Cl [Compound T483, 2-Fluoro-4-(6-methoxyquinolin-2-yl)-N-methylaniline dihydrochloride] | Mostly binds to Tau | –
36 | – | FCCOCCOCCNc1ccc(-c2ccc3ccccc3n2)cn1 [Compound T525, N-(2-(2-(2-Fluoroethoxy)ethoxy)ethyl)-5-(quinolin-2-yl)pyridin-2-amine] | – | binding of fluorescent compound to AD brain sections confirmed by immunostaining with tau or Aβ antibodies (AD brain sections): binding
37 | – | FCCCNc1ccc(C#Cc2nc3ccccc3[nH]2)cc1 [Compound T465, 4-((1H-Benzo[d]imidazol-2-yl)ethynyl)-N-(3-fluoropropyl)aniline] | – | Brain Section Staining: Ab (amyloid) (Aβ plaques; Table 2 acetylenes): binds to tau and Ab; Brain Section Staining: tau (tau aggregates; Table 2 acetylenes): binds to tau and Ab
38 | – | CN(C)c1ccc(-c2ccc3ccccc3n2)cn1 [Compound T125, N,N-Dimethyl-5-(quinolin-2-yl)pyridin-2-amine] | staining shows strong binding to tau | –
39 | – | FCCCNc1ccc(-c2ccnc3nc4ccccc4n23)cc1 [Compound T544, 4-(Benzo[4,5]imidazo[1,2-a]pyrimidin-4-yl)-N-(3-fluoropropyl)aniline] | – | binding of fluorescent compound to AD brain sections confirmed by immunostaining with tau or Aβ antibodies (AD brain sections): binding
40 | binds to Ab | FCCCNc1ccc(C#Cc2ccc3ccccc3n2)cc1 [Compound T454, N-(3-Fluoropropyl)-4-(quinolin-2-ylethynyl)aniline] | – | Brain Section Staining: Ab (amyloid) (Aβ plaques; Table 2 acetylenes): binds to Ab

Row | SMILES | Brain Section Staining: Ab (amyloid) (Aβ plaques; Table 1 quinolines) | Brain Section Staining: tau (tau aggregates; Table 1 quinolines) | further results
41 | Cn1cnc2ccc(-c3cc(F)c4ccccc4n3)cc21 [Compound T485, 4-Fluoro-2-(1-methyl-1H-benzo[d]imidazol-6-yl)quinoline 2,2,2-trifluoroacetate] | weakly binds to Ab | – | –
42 | CNc1ccc(-c2ccc3cc(OCCF)ccc3n2)cc1.Cl.Cl [Compound T409] | binds to amyloid | – | –
